Where “and” joins values, the source holds several entries; their conditions need not be identical. Equal entries are not always repeated. Structures can show the parent of a compound that is named as a salt. Calls of active or inactive are those of the source.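 Rule for the calls: active = compounds giving half or more protection of infected cells from virus-caused growth loss, again on retest; inactive = the rest.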 Where a SMILES comes first, the peptide text is derived from it. The star is where a group is joined. Tfa = O=C(C(F)(F)F)*
System: CEM cells HIV-1 protection, formazan growth assay
Experiment: NCI AIDS Antiviral Assay
Settings: for IC50: measured here: growth of uninfected CEM cells
Outline: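 Category rules: moderately active means at least 50% protection on retest, and confirmed active means 100% protection reproducibly. The underlying data came from a formazan growth assay in HIV-1-infected CEM cells.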

Row | SMILES | EC50 | IC50 | outcome
1 | [O-][n+]1onc2c1CCC(=N\O)/C2=N/Nc1ccccc1 | > 200 µM | 155 µM | 
2 | CC(=O)O[C@H]1CC[C@@]2(C)C(=CC[C@H]3C(CC#N)[C@@](C)(C#N)CCC32)C1 (some centres not stated) |  |  | inactive
3 | Cc1ccc2c(n1)C(N1CCCCC1)=CC(=O)C2=O |  |  | inactive
4 | Nc1cc(-c2ccccc2)nn1-c1nsc2ccccc12 | > 17.8 µM | > 17.8 µM | 
5 | CC(C)(C)CC(C)(C)c1cc2c(O)c(c1)Cc1cc(C(C)(C)CC(C)(C)C)cc(c1O)Cc1cc(C(C)(C)CC(C)(C)C)cc(c1O)Cc1cc(C(C)(C)CC(C)(C)C)cc(c1O)Cc1cc(C(C)(C)CC(C)(C)C)cc(c1O)Cc1cc(C(C)(C)CC(C)(C)C)cc(c1O)C2 | > 7.24 µM | > 7.24 µM | 
6 | N#CC12C(=N)CCC1C1CC2C2C3C=CC(C3)C12 (configuration not stated) | > 200 µM | > 200 µM | 
7 | N#Cc1c(-c2ccc([N+](=O)[O-])cc2)c(C#N)c(=O)n(NS(=O)(=O)c2ccccc2)c1-c1ccccc1 | > 200 µM | 36.3 µM | 
8 | C=CP(=S)(c1ccccc1)c1ccccc1 | > 56.2 µM | > 56.2 µM | 
9 | Clc1ccc(OCc2nnc(CCCCCCCCc3nnc(COc4ccc(Cl)cc4)n3Nc3ccccc3)n2Nc2ccccc2)cc1 |  |  | inactive
10 | [Pt].c1ccc([PH+](CC[PH+](CC[PH+](c2ccccc2)c2ccccc2)c2ccccc2)CC[PH+](c2ccccc2)c2ccccc2)cc1 (configuration not stated) | > 15.8 µM | 12.6 µM | 
11 | CCC(=O)c1cn(C)c(=O)c2ccccc12 |  |  | inactive
12 | Cn1cc2ccccc2c1-c1nc(N)nc(F)n1 | > 107 µM | 64.6 µM | 
13 | CSC(=NCCN=C(NS(=O)(=O)c1ccc(Cl)cc1)SC)NS(=O)(=O)c1ccc(Cl)cc1 | > 200 µM | > 200 µM | 
14 | O=S(=O)(CC#CCO)c1ccccc1 |  |  | inactive
15 | CCN(CC)c1ccc2cc(C(=O)NCc3ccccc3)c(=N)oc2c1 | > 200 µM | 11 µM | 
16 | NC(=N\N=C\C(O)C(O)C(O)C(O)C(=O)O)/C(N)=N/N=C/C(O)C(O)C(O)C(O)C(=O)O (configuration not stated) |  |  | inactive
17 | CCOC(=O)c1ncn2c1[nH]c(=S)c1ccccc12 | > 26.3 µM | > 26.3 µM | 
18 | CCOC(=O)c1[nH]cc(C)c1-c1ccc2c(-c3ccccc3)nc3ccccc3n12 | > 200 µM | 3.16 µM | 
19 | CCOc1ccc2c(ccc(/C=C\c3cc(C)c4cccnc4c3O)[n+]2C)c1 | > 52.5 µM | 0.955 µM | 
20 | COc1ccccc1C1OC2=C(Nc3ccccc3N2)C1=O (configuration not stated) | > 170 µM | > 170 µM | 
21 | O=C1/C=C(/c2ccc(O)cc2)[C@H](O)Cc2ccc(OC3OC(CO)C(O)C(O)C3O)cc2O1 (some centres not stated) (tested in a mixture with another compound) | > 251 µM | > 251 µM | 

Row | SMILES | EC50 | IC50 | outcome
22 | Cc1cc(SCC(=O)c2ccccc2[N+](=O)[O-])cc(C)[o+]1 | > 200 µM | 77.6 µM | 
23 | CCOC1C2c3cc4c(cc3CC(C#N)(c3ccccc32)N1C(=O)c1ccccc1)OCO4 (configuration not stated) |  |  | inactive
24 | Cc1cc(C23OC4COC(C)(C)OC4C2OC(C)(C)O3)ncn1 (configuration not stated) | > 200 µM | > 200 µM | 
25 | O=c1[nH]c(=O)n(C2OC(CF)C(O)C2O)cc1N1CCOCC1 (configuration not stated) | > 200 µM | > 200 µM | 
26 | O=C(O)CC(NC(=O)C(F)(F)F)C(=O)NC(Cc1ccc(O)cc1)C(=O)O (stereo not drawn) (Tfa-Asp-Tyr-OH; configuration not given here) | > 200 µM | > 200 µM | 
27 | CC(=O)OC1(C#N)CC2OC1C1C2N=NN1C(=O)OC(C)(C)C (configuration not stated) | > 209 µM | 28.8 µM | 
28 | CCCCCC=C(c1ccc(OC)c(S(=O)(=O)N(C)C)c1)c1ccc(OC)c(S(=O)(=O)N(C)C)c1 | > 35.5 µM | > 35.5 µM | 
29 | O=C(O)C1=C/C(=C(/c2ccccc2)c2cc(C(=O)O)c(O)c3ccccc23)c2ccccc2C1=O |  |  | inactive
30 | O=c1oc2ccccc2c2c1SC(c1ccncc1)C2 (configuration not stated) | > 200 µM | > 200 µM | 
31 | COC(=O)CC(c1ccccc1)C1(c2ccccc2)SCCS1 (configuration not stated) | > 7.94 µM | > 7.94 µM | 
32 | Cc1ccccc1NCN1C(=O)S/C(=C2\C(=O)N(C)c3ccc(Br)cc32)C1=O | > 200 µM | 11.7 µM | 
33 | COc1ccc(/C=C(\C#N)c2ccc(OC)c(OC)c2)cc1 | > 2 µM | 0.257 µM | 
34 | CCc1oc2ccccc2c1C(=O)c1cc(Br)c(O)c(Br)c1 | > 200 µM | 34.7 µM | 
35 | Nc1nc2n(n1)C(=O)C(=O)N2 | > 115 µM | > 115 µM | 
36 | CNS(=O)(=O)NNS(=O)(=O)c1ccc(Cl)cc1 | > 120 µM | > 120 µM | 
37 | C[Si](C)(C)C1=C2C(=O)c3ccccc3C(=O)C2=C([Si](C)(C)C)[C@@H]2CCCC[C@H]12 | > 50.1 µM | > 50.1 µM | 
38 | C/C(CC(=O)Nc1ccc(C)cc1C)=N/N=C(N)N | > 191 µM | > 191 µM | 
39 | COc1cccc(CCn2c(N)c(C#N)c3ccc([N+](=O)[O-])cc3c2=O)c1 | > 200 µM | 1.12 µM | 
40 | C[C@H](N[C@H]1CCC[C@]1(O)C#Cc1ccc2c(c1)OCO2)c1ccccc1 | > 50.1 µM | 28.8 µM | 
41 | CC(=O)OC(C)C(=O)C1c2cccc(O)c2C(=O)c2c(O)cc(C)cc21 (configuration not stated) | > 191 µM | 3.24 µM | 
42 | N#C/C(=C/c1cccs1)c1cccs1 | > 200 µM | > 200 µM | 

Row | SMILES | EC50 | IC50 | outcome
43 | CCC1c2c(cc(=O)[nH]c2O)C(=O)N1Cc1ccccc1 (configuration not stated) | > 398 µM | > 398 µM | 
44 | CC(=O)OC[C@]12[C@H](OC(C)=O)[C@H](OC(C)=O)[C@@H]3C(OC(C)=O)[C@@]14OC3(C)COC(=O)c1cccnc1CCC(C)C(=O)OC([C@H]4C)[C@H](O)[C@@H]2OC(=O)c1ccccc1 (some centres not stated) |  |  | inactive
45 | Cn1c(O)c(N=NC(=O)Cc2c[nH]c3ccccc23)c2ccccc21 | > 200 µM | > 200 µM | 
46 | CSc1nc(NC2OC(COC(C)=O)C(OC(C)=O)C(OC(C)=O)C2OC(C)=O)c(N=C(C)C(C)=O)c(=O)[nH]1 (configuration not stated) |  |  | inactive
47 | O=c1n(-c2ccccc2)c(=O)n2n1C1C=CC2CCCCCC1 | > 200 µM | > 200 µM | 
48 | O=c1[nH]c2nc3ccccc3c(=O)n2/c1=C/c1ccc(Cl)cc1 | > 200 µM | 11.2 µM | 
49 | O=S(=O)(c1ccc(Cl)cc1)c1ccccc1C1=NCCN1 | > 200 µM | > 200 µM | 
50 | CC(C)OP(=O)(OC(C)C)C(C(C)C)N(C)/C(N)=N\C1=NC(C(F)(F)F)(C(F)(F)F)N=C(C(C(F)(F)F)C(F)(F)F)O1 (configuration not stated) | > 200 µM | 0.0631 µM | 
51 | CSc1nc(SC)c2nc(Nc3ccccc3)sc2n1 | > 200 µM | 6.17 µM | 
52 | Cc1c2sc3ccccc3[nH]c2nc2[nH]c3ccccc3sc12 | > 38 µM | 14.8 µM | 
53 | CCOc1ccc(NC(=O)CC2SC(=Nc3ccc(Cl)cc3)NC2=O)cc1 (configuration not stated) | > 617 µM | > 617 µM | 
54 | O=C(N/N=C(/CCN1CCCC1)CC(c1ccccc1)c1c(O)c2ccccc2oc1=O)c1ccncc1 (configuration not stated) | > 34.7 µM |  | 
55 | COc1cc(O)c2c(c1)O[C@@H]1OCC[C@H]21 | > 1200 µM | 871 µM | 
56 | CC1CC(=O)Nc2ccc(Cl)cc2N1C(=O)CN1CCC(CCCCN(C)C)CC1 (configuration not stated) | > 251 µM | 129 µM | 
57 | O=[N+]([O-])c1cc(C=NC23CC4CC(CC(C4)C2)C3)ccc1Cl | > 200 µM | 3.72 µM | 
58 | CN(C)c1ccc(SSc2ccc(N(C)C)cc2)cc1 | > 200 µM | 14.1 µM | 
59 | CN(C)CCn1c(=O)oc2cc(C(=O)CN3CCOCC3)ccc21 | > 200 µM | 102 µM | 
60 | CC(C)OP(=O)(OC(C)C)C(=Nc1ccccc1)NNc1ccc([N+](=O)[O-])cc1 | > 32.4 µM | 21.9 µM | 
61 | COc1ccc(C(=O)O[C@H]2[C@@H]3C=CO[C@@H](OC4OC(CO)C(O)C(O)C4O)[C@@H]3[C@@]3(CO)O[C@@H]23)cc1O (some centres not stated) |  |  | inactive
62 | COC(=O)/C(C#N)=C\n1c(=S)[nH]c2ccccc21 | > 200 µM | > 200 µM | 
63 | O=c1c2cc([N+](=O)[O-])cnc2sn1-c1ccc(Br)cc1 | > 200 µM | 63.1 µM | 

Row | SMILES | EC50 | IC50 | outcome
64 | CN(C)CC(CC1=C(CC(CN(C)C)N(C)C)CCC1)N(C)C (configuration not stated) |  |  | inactive
65 | O=C(O)CCCO | > 200 µM | > 200 µM | 
66 | CCC(C)C1NC(=O)C(N(C)C)Cc2cc(ccc2OC)/C=C/NC(=O)C(Cc2ccccc2)NC1=O (configuration not stated) | > 35.5 µM | > 35.5 µM | 
67 | ON=C1CCC(c2ccccc2)CC1 (configuration not stated) |  |  | inactive
68 | CCCCCCCCCCCCCCCc1cccc(O)c1C(=O)O |  |  | inactive
69 | Cc1ccc(C2=Nn3c(nc4sc(C)c(C)c4c3=O)SC2)cc1 | > 200 µM | > 200 µM | 
70 | O=C1CC2(CCC3=C(O2)c2ccccc2NC(=O)C3)C(=O)c2ccccc2N1 (configuration not stated) | > 69.2 µM | > 69.2 µM | 
71 | Cc1[nH]nc(-c2ccon2)c1N=O | > 200 µM | 8.91 µM | 
72 | Cc1cc(-c2cscn2)c(O)c([N+](=O)[O-])c1 | > 200 µM | 35.5 µM | 
73 | CC1(C)CC(=O)C2=C(C1)OC1=C(CC(C)(C)CC1=O)C2c1ccccc1Cl (configuration not stated) | > 200 µM | 162 µM | 
74 | O=C1CC2(CC=CCC23OCCO3)CC(CI)O1 (configuration not stated) | > 200 µM | > 200 µM | 
75 | Nc1ccc(S(=O)(=O)N/N=C/c2ccc3c(c2)OCO3)cc1 | > 81.3 µM | > 81.3 µM | 
76 | COC(=O)C(Cc1ccccc1)NP(=O)(O)OCC1OC(n2ccc(N)nc2=O)C(O)C1O (configuration not stated) | > 200 µM | 4.27 µM | 
77 | Oc1ccc(/C=C/c2cc(O)cc3c2[C@@H](c2cc(O)cc4c2[C@H](c2cc(O)cc5c2[C@@H](c2cc(O)cc(O)c2)[C@H](c2ccc(O)cc2)O5)[C@@H](c2ccc(O)cc2)O4)[C@H](c2ccc(O)cc2)O3)cc1 | 12.3 µM | 15.8 µM | 
78 | NCCOCCOCC(=O)O |  |  | inactive
79 | COC(=O)c1c(C)cccc1C1CN=NC12Cc1cc(C)c(C)cc1C2=O (configuration not stated) | > 200 µM | 120 µM | 
80 | N#CC(C(=O)CCC(=O)Nc1ccc(Cl)cc1)c1ccccc1Cl (configuration not stated) | > 186 µM | > 186 µM | 
81 | COc1ccc(COC(=O)NCC(=O)NC(C)C(=O)NC(Cc2ccccc2)C(=O)OCc2ccccc2)cc1 (configuration not stated) | > 200 µM | 45.7 µM and 12.9 µM | 
82 | CCNc1cc2c(cc1O)CC[C@@H]1[C@@H]2CC[C@]2(C)[C@@H](O)CC[C@@H]12 | > 200 µM | 3.89 µM | 
83 | Oc1ccc(CCc2nc3ccccc3[nH]2)cc1 | > 200 µM | 42.7 µM | 
84 | COP(=O)(OC)C(=NCc1ccccc1)NNc1ccc([N+](=O)[O-])cc1 | > 200 µM | 191 µM | 

From PubChem BioAssay AID179 (DTP/NCI, 2004)
